Measured values reported in patent publication US12358897B2, “Compounds and method of treating COVID-19” (Pfizer Inc., priority 2020, dated 2025).

These molecules were tested against T1, full-length SARS-CoV-2 3CL protease (Severe acute respiratory syndrome coronavirus 2, UniProt P0DTD1) (assay: SARS-CoV-2 Coronavirus 3C Protease FRET Assay (Dabcyl-KTSAVLQ-SGFRKME-Edans substrate)). Conditions: 15 nM enzyme, 25 μM peptide substrate, 60 minutes at 23° C.; Morrison equation fit; read-out: Geometric Mean Ki.
T1 construct: measures the activity of full-length SARS-CoV-2 3CL protease
Type: biochemical

Compound | Ki
COc1cccc2[nH]c(C(=O)N[C@@H](CC(C)C)C(=O)N[C@@H](C[C@@H]3CCNC3=O)C(=O)COC(=O)c3cnn(C)c3)cc12 [Example 44, (3S)-3-({N-[(4-methoxy-1H-indol-2-yl)carbonyl]-L-leucyl}amino)-2-oxo-4-[(3S)-2-oxopyrrolidin-3-yl]butyl 1-methyl-1H-pyrazole-4-carboxylate] | 90.6 nM
COc1ccccc1C(=O)OCC(=O)[C@H](C[C@@H]1CCNC1=O)NC(=O)[C@H](CC(C)C)NC(=O)c1cc2c(OC)cccc2[nH]1 [Example 15, (3S)-3-({N-[(4-methoxy-1H-indol-2-yl)carbonyl]-L-leucyl}amino)-2-oxo-4-[(3S)-2-oxopyrrolidin-3-yl]butyl 2-methoxybenzoate] | 147 nM
COc1cccc2[nH]c(C(=O)N[C@@H](CC(C)C)C(=O)N[C@@H](C[C@@H]3CCNC3=O)C(=O)COC(=O)C3CCN(C)CC3)cc12 [Example 30, (3S)-3-({N-[(4-methoxy-1H-indol-2-yl)carbonyl]-L-leucyl}amino)-2-oxo-4-[(3S)-2-oxopyrrolidin-3-yl]butyl 1-methylpiperidine-4-carboxylate] | 6.13 nM
COc1cccc2[nH]c(C(=O)N[C@@H](CC(C)C)C(=O)N[C@@H](C[C@@H]3CCNC3=O)C(=O)COC(=O)c3c(C)cc(F)cc3C)cc12 [Example 74, (3S)-3-({N-[(4-methoxy-1H-indol-2-yl)carbonyl]-L-leucyl}amino)-2-oxo-4-[(3S)-2-oxopyrrolidin-3-yl]butyl 4-fluoro-2,6-dimethylbenzoate] | 44.3 nM
COc1cccc2[nH]c(C(=O)N[C@@H](CC(C)C)C(=O)N[C@@H](C[C@@H]3CCNC3=O)C(=O)COC(=O)c3c(C)nn(C)c3C)cc12 [Example 48, (3S)-3-({N-[(4-methoxy-1H-indol-2-yl)carbonyl]-L-leucyl}amino)-2-oxo-4-[(3S)-2-oxopyrrolidin-3-yl]butyl 1,3,5-trimethyl-1H-pyrazole-4-carboxylate] | 255 nM
COc1cccc2[nH]c(C(=O)N[C@@H](CC(C)C)C(=O)N[C@@H](C[C@@H]3CCNC3=O)C(=O)COC(=O)c3c(C)cncc3C)cc12 [Example 68, (3S)-3-({N-[(4-methoxy-1H-indol-2-yl)carbonyl]-L-leucyl}amino)-2-oxo-4-[(3S)-2-oxopyrrolidin-3-yl]butyl 3,5-di methylpyridine-4-carboxylate] | 7.56 nM
COc1cc(C)c(C(=O)OCC(=O)[C@H](C[C@@H]2CCNC2=O)NC(=O)[C@H](CC(C)C)NC(=O)c2cc3c(OC)cccc3[nH]2)c(C)c1 [Example 73, (3S)-3-({N-[(4-methoxy-1H-indol-2-yl)carbonyl]-L-leucyl}amino)-2-oxo-4-[(3S)-2-oxopyrrolidin-3-yl]butyl 4-methoxy-2,6-dimethyl benzoate] | 117 nM
COc1cccc2[nH]c(C(=O)N[C@@H](CC(C)C)C(=O)N[C@@H](C[C@@H]3CCNC3=O)C(=O)COC(=O)C3(C)CC3)cc12 [Example 21, (3S)-3-({N-[(4-methoxy-1H-indol-2-yl)carbonyl]-L-leucyl}amino)-2-oxo-4-[(3S)-2-oxopyrrolidin-3-yl]butyl 1-methylcyclopropanecarboxylate] | 104 nM
CC[C@@H](C)C(=O)OCC(=O)[C@H](C[C@@H]1CCNC1=O)NC(=O)[C@H](CC(C)C)NC(=O)c1cc2c(OC)cccc2[nH]1 [Example 19, (3S)-3-({N-[(4-methoxy-1H-indol-2-yl)carbonyl]-L-leucyl}amino)-2-oxo-4-[(3S)-2-oxopyrrolidin-3-yl]butyl (2R)-2-methylbutanoate] | 64.8 nM
COc1cccc2[nH]c(C(=O)N[C@@H](CC(C)C)C(=O)N[C@@H](C[C@@H]3CCNC3=O)C(=O)COC(=O)C3(C)CCN(C)CC3)cc12 [Example 17, (3S)-3-({N-[(4-methoxy-1H-indol-2-yl)carbonyl]-L-leucyl}amino)-2-oxo-4-[(3S)-2-oxopyrrolidin-3-yl]butyl 1,4-dimethylpiperidine-4-carboxylate] | 17.5 nM
COc1cccc2[nH]c(C(=O)N[C@@H](CC(C)C)C(=O)N[C@@H](C[C@@H]3CCNC3=O)C(=O)COC(=O)c3ncn(C)c3C)cc12 [Example 40, (3S)-3-({N-[(4-methoxy-1H-indol-2-yl)carbonyl]-L-leucyl}amino)-2-oxo-4-[(3S)-2-oxopyrrolidin-3-yl]butyl 1,5-dimethyl-1H-imidazole-4-carboxylate] | 306 nM
COc1cccc2[nH]c(C(=O)N[C@@H](CC(C)C)C(=O)N[C@@H](C[C@@H]3CCNC3=O)C(=O)COC(=O)c3cn(C)nc3C)cc12 [Example 39, (3S)-3-({N-[(4-methoxy-1H-indol-2-yl)carbonyl]-L-leucyl}amino)-2-oxo-4-[(3S)-2-oxopyrrolidin-3-yl]butyl 1,3-dimethyl-1H-pyrazole-4-carboxylate] | 91.9 nM
CC[C@H](C)C(=O)OCC(=O)[C@H](C[C@@H]1CCNC1=O)NC(=O)[C@H](CC(C)C)NC(=O)c1cc2c(OC)cccc2[nH]1 [Example 18, (3S)-3-({N-[(4-methoxy-1H-indol-2-yl)carbonyl]-L-leucyl}amino)-2-oxo-4-[(3S)-2-oxopyrrolidin-3-yl]butyl (2S)-2-methylbutanoate] | 65.7 nM
COc1cccc2[nH]c(C(=O)N[C@@H](CC(C)C)C(=O)N[C@@H](C[C@@H]3CCNC3=O)C(=O)COC(=O)c3ccccc3Cl)cc12 [Example 16, (3S)-3-({N-[(4-methoxy-1H-indol-2-yl)carbonyl]-L-leucyl}amino)-2-oxo-4-[(3S)-2-oxopyrrolidin-3-yl]butyl 2-chlorobenzoate] | 10.5 nM
COc1cccc2[nH]c(C(=O)N[C@@H](CC(C)C)C(=O)N[C@@H](C[C@@H]3CCNC3=O)C(=O)COC(=O)c3cnccc3C)cc12 [Example 23, (3S)-3-({N-[(4-methoxy-1H-indol-2-yl)carbonyl]-L-leucyl}amino)-2-oxo-4-[(3S)-2-oxopyrrolidin-3-yl]butyl 4-methylpyridine-3-carboxylate] | 21.2 nM
COc1cccc(C)c1C(=O)OCC(=O)[C@H](C[C@@H]1CCNC1=O)NC(=O)[C@H](CC(C)C)NC(=O)c1cc2c(OC)cccc2[nH]1 [Example 66, (3S)-3-({N-[(4-methoxy-1H-indol-2-yl)carbonyl]-L-leucyl}amino)-2-oxo-4-[(3S)-2-oxopyrrolidin-3-yl]butyl 2-methoxy-6-methylbenzoate] | 39.6 nM
COc1cccc2[nH]c(C(=O)N[C@@H](CC(C)C)C(=O)N[C@@H](C[C@@H]3CCNC3=O)C(=O)COC(=O)c3ccccc3C)cc12 [Example 11, (3S)-3-({N-[(4-methoxy-1H-indol-2-yl)carbonyl]-L-leucyl}amino)-2-oxo-4-[(3S)-2-oxopyrrolidin-3-yl]butyl 2-methylbenzoate] | 71.4 nM
COc1cccc2[nH]c(C(=O)N[C@@H](CC(C)C)C(=O)N[C@@H](C[C@@H]3CCNC3=O)C(=O)COC(=O)c3c(C)ccnc3CN(C)C)cc12 [Example 59, (3S)-3-({N-[(4-methoxy-1H-indol-2-yl)carbonyl]-L-leucyl}amino)-2-oxo-4-[(3S)-2-oxopyrrolidin-3-yl]butyl 2-[(dimethylamino)methyl]-4-methylpyridine-3-carboxylate] | 13.6 nM
COc1cccc2[nH]c(C(=O)N[C@@H](CC(C)C)C(=O)N[C@@H](C[C@@H]3CCNC3=O)C(=O)COC(=O)[C@@H]3CCCN3C)cc12 [Example 28, (3S)-3-({N-[(4-methoxy-1H-indol-2-yl)carbonyl]-L-leucyl}amino)-2-oxo-4-[(3S)-2-oxopyrrolidin-3-yl]butyl 1-methyl-L-prolinate] | 2.47 nM
COc1cccc2[nH]c(C(=O)N[C@@H](CC(C)C)C(=O)N[C@@H](C[C@@H]3CCNC3=O)C(=O)COC(=O)c3ccn(C)n3)cc12 [Example 43, (3S)-3-({N-[(4-methoxy-1H-indol-2-yl)carbonyl]-L-leucyl}amino)-2-oxo-4-[(3S)-2-oxopyrrolidin-3-yl]butyl 1-methyl-1H-pyrazole-3-carboxylate] | 118 nM
COc1cccc2[nH]c(C(=O)N[C@@H](CC(C)C)C(=O)N[C@@H](C[C@@H]3CCNC3=O)C(=O)COC(=O)c3ccnn3C)cc12 [Example 42, (3S)-3-({N-[(4-methoxy-1H-indol-2-yl)carbonyl]-L-leucyl}amino)-2-oxo-4-[(3S)-2-oxopyrrolidin-3-yl]butyl 1-methyl-1H-pyrazole-5-carboxylate] | 5.25 nM
COc1cccc2[nH]c(C(=O)N[C@@H](CC(C)C)C(=O)N[C@@H](C[C@@H]3CCNC3=O)C(=O)COC(=O)c3cn(C)cn3)cc12 [Example 51, (3S)-3-({N-[(4-methoxy-1H-indol-2-yl)carbonyl]-L-leucyl}amino)-2-oxo-4-[(3S)-2-oxopyrrolidin-3-yl]butyl 1-methyl-1H-imidazole-4-carboxylate] | 152 nM
COc1cccc2[nH]c(C(=O)N[C@@H](CC(C)C)C(=O)N[C@@H](C[C@@H]3CCNC3=O)C(=O)COC(=O)[C@H]3CCCCN3C)cc12 [Example 37, (3S)-3-({N-[(4-methoxy-1H-indol-2-yl)carbonyl]-L-leucyl}amino)-2-oxo-4-[(3S)-2-oxopyrrolidin-3-yl]butyl (2R)-1-methylpiperidine-2-carboxylate] | 1.42 nM
CCC(=O)OCC(=O)[C@H](C[C@@H]1CCNC1=O)NC(=O)[C@H](CC(C)C)NC(=O)c1cc2c(OC)cccc2[nH]1 [Example 9, (3S)-3-({N-[(4-methoxy-1H-indol-2-yl)carbonyl]-L-leucyl}amino)-2-oxo-4-[(3S)-2-oxopyrrolidin-3-yl]butyl propanoate] | 33.6 nM
COc1cccc2[nH]c(C(=O)N[C@@H](CC(C)C)C(=O)N[C@@H](C[C@@H]3CCNC3=O)C(=O)COC(=O)c3c(C)cccc3F)cc12 [Example 72, (3S)-3-({N-[(4-methoxy-1H-indol-2-yl)carbonyl]-L-leucyl}amino)-2-oxo-4-[(3S)-2-oxopyrrolidin-3-yl]butyl 2-fluoro-6-methylbenzoate] | 8.91 nM
COc1cccc2[nH]c(C(=O)N[C@@H](CC(C)C)C(=O)N[C@@H](C[C@@H]3CCNC3=O)C(=O)COC(=O)c3cncn3C)cc12 [Example 45, (3S)-3-({N-[(4-methoxy-1H-indol-2-yl)carbonyl]-L-leucyl}amino)-2-oxo-4-[(3S)-2-oxopyrrolidin-3-yl]butyl 1-methyl-1H-imidazole-5-carboxylate] | 40.7 nM
